Data as given in PubChem BioAssay AID248 (DTP/NCI, 2004).
Several values for one entry are separate records, joined by “and”; a condition that tells them apart may be missing. Identical values can stand only once. Toxic doses and inconclusive results are not listed.

Tested on: L1210 leukemia ip in BDF1 mice, survival T/C
Experiment: NCI In Vivo Anticancer Drug Screen. Data for tumor model L1210 Leukemia (intraperitoneal) in B6D2F1 (BDF1) mice
Details: endpoint: mean survival time, higher = longer survival
Summary of the method: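 In this screen, tumor-bearing mice given compound are compared to those given vehicle, and their survival values are reported as a treated-to-control quotient.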

[1] = dose: 100.0 mg/kg/injection, schedule: Q04DX003 (ip), vehicle: other
[2] = dose: 75.0 mg/kg/injection, schedule: Q01DX001 (ip), vehicle: saline
[3] = dose: 150.0 mg/kg/injection, schedule: Q01DX001 (ip), vehicle: saline
[4] = dose: 100.0 mg/kg/injection, schedule: Q04DX003 (ip), vehicle: Klucel (hydroxypropylcellulose) (HPC)
[5] = dose: 200.0 mg/kg/injection, schedule: Q04DX003 (ip), vehicle: Klucel (hydroxypropylcellulose) (HPC)
[6] = dose: 400.0 mg/kg/injection, schedule: Q04DX003 (ip), vehicle: Klucel (hydroxypropylcellulose) (HPC)
[7] = dose: 100.0 mg/kg/injection, schedule: Q01DX009 (ip), vehicle: Klucel (hydroxypropylcellulose) (HPC)
[8] = dose: 200.0 mg/kg/injection, schedule: Q01DX009 (ip), vehicle: Klucel (hydroxypropylcellulose) (HPC)
[9] = dose: 400.0 mg/kg/injection, schedule: Q01DX009 (ip), vehicle: Klucel (hydroxypropylcellulose) (HPC)
[10] = dose: 100.0 mg/kg/injection, schedule: Q04DX003 (ip), vehicle: saline
[11] = dose: 200.0 mg/kg/injection, schedule: Q04DX003 (ip), vehicle: saline
[12] = dose: 400.0 mg/kg/injection, schedule: Q04DX003 (ip), vehicle: saline
[13] = dose: 100.0 mg/kg/injection, schedule: Q04DX003 (ip), vehicle: saline with Tween-80
[14] = dose: 100.0 mg/kg/injection, schedule: Q01DX009 (ip), vehicle: saline
[15] = dose: 50.0 mg/kg/injection, schedule: Q01DX001 (ip), vehicle: saline
[16] = dose: 100.0 mg/kg/injection, schedule: Q01DX001 (ip), vehicle: saline
[17] = dose: 200.0 mg/kg/injection, schedule: Q01DX001 (ip), vehicle: saline
[18] = dose: 400.0 mg/kg/injection, schedule: Q01DX001 (ip), vehicle: saline

SMILES: O=C(CCl)COP(=O)(O)O
- T/C (dose: 6.25 mg/kg/injection, schedule: Q01DX009 (ip), vehicle: other): 102 % of control
- T/C (dose: 12.5 mg/kg/injection, schedule: Q01DX001 (ip), vehicle: other): 102 % of control
- T/C (dose: 12.5 mg/kg/injection, schedule: Q01DX009 (ip), vehicle: other): 91 % of control
- T/C (dose: 12.5 mg/kg/injection, schedule: Q04DX003 (ip), vehicle: other): 91 % of control
- T/C (dose: 25.0 mg/kg/injection, schedule: Q01DX001 (ip), vehicle: other): 91 % of control
- T/C (dose: 25.0 mg/kg/injection, schedule: Q01DX009 (ip), vehicle: other): 101 % of control
- T/C (dose: 25.0 mg/kg/injection, schedule: Q04DX003 (ip), vehicle: other): 88 % of control
- T/C (dose: 50.0 mg/kg/injection, schedule: Q01DX001 (ip), vehicle: other): 96 % of control
- T/C (dose: 50.0 mg/kg/injection, schedule: Q01DX009 (ip), vehicle: other): 114 % of control
- T/C (dose: 50.0 mg/kg/injection, schedule: Q04DX003 (ip), vehicle: other): 93 % of control
- T/C (dose: 100.0 mg/kg/injection, schedule: Q01DX001 (ip), vehicle: other): 89 % of control
- T/C [1]: 106 % of control

SMILES: O=C1CCC[C@@H]2[C@H]3CCCN4CCC[C@@H](CN12)[C@@H]34
- T/C [2]: 105 % of control
- T/C [3]: 96 % of control

SMILES: CN(Cc1cnc2nc(N)nc(N)c2n1)c1cc(Cl)c(C(=O)NC(CCC(=O)O)C(=O)O)c(Cl)c1 (stereo not given)
- T/C (dose: 25.0 mg/kg/injection, schedule: Q01DX009 (ip), vehicle: sodium bicarbonate): 106 % of control
- T/C (dose: 50.0 mg/kg/injection, schedule: Q01DX009 (ip), vehicle: sodium bicarbonate): 107 % of control
- T/C (dose: 100.0 mg/kg/injection, schedule: Q01DX009 (ip), vehicle: sodium bicarbonate): 622 % of control
- T/C (dose: 200.0 mg/kg/injection, schedule: Q01DX009 (ip), vehicle: sodium bicarbonate): 120 % of control

SMILES: CCCCCCCCCCCCCCCC(S(=O)(=O)CC)S(=O)(=O)CC
- T/C [4]: 93 % of control
- T/C [5]: 97 % of control
- T/C [6]: 87 % of control

SMILES: NC(=O)c1cc(Cl)cc(Cl)c1Br
- T/C [1]: 95 % of control
- T/C (dose: 200.0 mg/kg/injection, schedule: Q04DX003 (ip), vehicle: other): 103 % of control

SMILES: O=c1[nH]cnc2ccccc12
- T/C [7]: 107 % of control
- T/C [8]: 93 % of control
- T/C [9]: 103 % of control

SMILES: O=S(=O)(O)c1cc(O)c2ccc(NNC(O)c3ccc(Cl)c(Cl)c3)cc2c1 (stereo not given)
- T/C [10]: 87 % of control
- T/C [11]: 96 % of control
- T/C [12]: 98 % of control

SMILES: O=C(O)c1c(Br)c(Br)c(Br)c(Br)c1C(=O)Nc1ccc([N+](=O)[O-])cc1
- T/C [7]: 104 % of control
- T/C (dose: 100.0 mg/kg/injection, schedule: Q04DX002 (ip), vehicle: Klucel (hydroxypropylcellulose) (HPC)): 96 % of control
- T/C [8]: 109 % of control
- T/C (dose: 200.0 mg/kg/injection, schedule: Q04DX002 (ip), vehicle: Klucel (hydroxypropylcellulose) (HPC)): 96 % of control
- T/C (dose: 400.0 mg/kg/injection, schedule: Q04DX002 (ip), vehicle: Klucel (hydroxypropylcellulose) (HPC)): 107 % of control

SMILES: CCOC(=O)C(C(=O)OCC)C(=O)c1cccc2ccc3ccccc3c12
- T/C [13]: 96 % of control
- T/C (dose: 200.0 mg/kg/injection, schedule: Q04DX003 (ip), vehicle: saline with Tween-80): 96 % of control
- T/C (dose: 400.0 mg/kg/injection, schedule: Q04DX003 (ip), vehicle: saline with Tween-80): 97 % of control

SMILES: OC(CF)CF
- T/C (dose: 25.0 mg/kg/injection, schedule: Q01DX009 (ip), vehicle: saline): 115 % of control
- T/C [14]: 103 % of control

SMILES: Nc1cc(=O)[nH]c(=S)n1-c1ccc(Br)cc1
- T/C [15]: 93 % of control
- T/C [16]: 102 % of control
- T/C [17]: 93 % of control
- T/C [18]: 108 % of control

SMILES: COc1ccc(/C=N/NC(=O)c2ccccc2O)cc1
- T/C [7]: 98 % of control
- T/C [8]: 96 % of control
- T/C [9]: 112 % of control

SMILES: O=Cc1ccc2c3c(cccc13)CC2
- T/C [16]: 96 % of control
- T/C [17]: 101 % of control
- T/C [18]: 100 % of control

SMILES: O=c1[nH]nc(CF)c(=O)[nH]1
- T/C (dose: 5.0 mg/kg/injection, schedule: Q01DX009 (ip), vehicle: saline): 107 % of control
- T/C (dose: 6.0 mg/kg/injection, schedule: Q01DX009 (ip), vehicle: saline): 108 % of control
- T/C (dose: 10.0 mg/kg/injection, schedule: Q01DX009 (ip), vehicle: saline): 116 % of control
- T/C (dose: 11.0 mg/kg/injection, schedule: Q01DX Z (ip), vehicle: saline): 111 % of control
- T/C (dose: 12.0 mg/kg/injection, schedule: Q01DX009 (ip), vehicle: saline): 112 % of control
- T/C (dose: 14.0 mg/kg/injection, schedule: Q01DX009 (ip), vehicle: saline): 104 % of control
- T/C (dose: 16.0 mg/kg/injection, schedule: Q01DX Z (ip), vehicle: saline): 111 % of control
- T/C (dose: 20.0 mg/kg/injection, schedule: Q01DX009 (ip), vehicle: saline): 105 % of control and 124 % of control
- T/C (dose: 24.0 mg/kg/injection, schedule: Q01DX009 (ip), vehicle: saline): 122 % of control
- T/C (dose: 30.0 mg/kg/injection, schedule: Q01DX009 (ip), vehicle: saline): 119 % of control
- T/C (dose: 40.0 mg/kg/injection, schedule: Q01DX009 (ip), vehicle: saline): 116 % of control
- T/C [15]: 110 % of control
- T/C [16]: 119 % of control

SMILES: CCOC(=O)c1[nH]c(=S)[nH]c1C(=O)OCC
- T/C (dose: 5.0 mg/kg/injection, schedule: Q01DX001 (ip), vehicle: saline): 102 % of control
- T/C (dose: 10.0 mg/kg/injection, schedule: Q01DX001 (ip), vehicle: saline): 102 % of control
- T/C (dose: 20.0 mg/kg/injection, schedule: Q01DX001 (ip), vehicle: saline): 104 % of control
- T/C (dose: 40.0 mg/kg/injection, schedule: Q01DX001 (ip), vehicle: saline): 94 % of control
- T/C (dose: 80.0 mg/kg/injection, schedule: Q01DX001 (ip), vehicle: saline): 95 % of control

SMILES: O=C(Nc1ccc(F)c([N+](=O)[O-])c1)c1ccc2c(c1)C(=O)OC2=O
- T/C [16]: 99 % of control
- T/C [14]: 102 % of control and 92 % of control
- T/C (dose: 100.0 mg/kg/injection, schedule: Q04DX002 (ip), vehicle: saline): 104 % of control and 109 % of control
- T/C [10]: 106 % of control
- T/C [17]: 99 % of control
- T/C (dose: 200.0 mg/kg/injection, schedule: Q01DX009 (ip), vehicle: saline): 100 % of control and 92 % of control
- T/C (dose: 200.0 mg/kg/injection, schedule: Q04DX002 (ip), vehicle: saline): 96 % of control and 104 % of control
- T/C [11]: 111 % of control
- T/C [18]: 104 % of control
- T/C (dose: 400.0 mg/kg/injection, schedule: Q01DX009 (ip), vehicle: saline): 105 % of control and 92 % of control
- T/C (dose: 400.0 mg/kg/injection, schedule: Q04DX002 (ip), vehicle: saline): 96 % of control and 104 % of control
- T/C [12]: 103 % of control

SMILES: COC(=O)C(C(=O)Oc1ccc([N+](=O)[O-])cc1)c1ccccc1 (stereo not given)
- T/C (dose: 100.0 mg/kg/injection, schedule: Q01DX001 (ip), vehicle: Klucel (hydroxypropylcellulose) (HPC)): 97 % of control
- T/C [4]: 101 % of control
- T/C (dose: 200.0 mg/kg/injection, schedule: Q01DX001 (ip), vehicle: Klucel (hydroxypropylcellulose) (HPC)): 97 % of control
- T/C [8]: 102 % of control
- T/C [5]: 103 % of control
- T/C (dose: 400.0 mg/kg/injection, schedule: Q01DX001 (ip), vehicle: Klucel (hydroxypropylcellulose) (HPC)): 100 % of control
- T/C [9]: 109 % of control
- T/C [6]: 101 % of control

SMILES: CC(C)C1N=C(N)N=C(N)N1c1ccc(Cl)c(Cl)c1 (stereo not given)
- T/C [2]: 105 % of control
- T/C [3]: 96 % of control

SMILES: COc1ccc(COC(=O)Nc2cccc(Cl)c2)cc1OC
- T/C [7]: 96 % of control
- T/C [8]: 102 % of control
- T/C [9]: 103 % of control

SMILES: COc1cc(/C=C\[N+](=O)[O-])ccc1O
- T/C (dose: 25.0 mg/kg/injection, schedule: Q04DX003 (ip), vehicle: saline with Tween-80): 93 % of control
- T/C (dose: 50.0 mg/kg/injection, schedule: Q04DX003 (ip), vehicle: saline with Tween-80): 96 % of control
- T/C [13]: 95 % of control

SMILES: Nc1nc2ncc(C(=O)O)nc2c(=O)[nH]1
- T/C (dose: 50.0 mg/kg/injection, schedule: Q04DX003 (ip), vehicle: saline): 98 % of control
- T/C [10]: 97 % of control and 104 % of control
- T/C [12]: 105 % of control

SMILES: NC1CCC(c2ccccc2)(c2ccccc2)C1=O (stereo not given)
- T/C [2]: 100 % of control
- T/C [3]: 102 % of control
